The target of assay [1] is T1, Mineralocorticoid Receptor (MR) (Rattus norvegicus, UniProt P22199).
T1 construct: Wistar Rat kidney; from tissue; host or cells: Wistar rat kidney
The experiment in a line: Radioligand binding assay, steroid hormone receptor MR. Particulars: MAP4343 10 µM; 4.5 nM [^3H] D-Aldosterone; Wistar Rat kidney. The protocol:
(§1) Binding affinity of 3β-methoxy-PREG (MAP4343) for receptors of steroid hormones was evaluated using radioligand binding assays.
(§2) Table 3. Affinity of MAP4343 (10 µM) for steroid hormones receptors measured by radioligand binding assays. […] None of the results met significance criteria at concentrations used.

Another assay deals with Histaminergic H1 (Homo sapiens, UniProt P35367). The assay is described as follows: CNS receptor binding assay, H1. Particulars: MAP4343 10 µM; [^3H] pyrilamine; Human recombinant (HEK-293 cells); read-out: % Inhibition of control specific binding. The method, then:
(§3) MAP4343 has been screened for in vitro affinity to 80 different CNS neurotransmitters receptors using various validated binding assays.
(§4) Table 4. In vitro affinity of MAP4343 (10 µM) for CNS neurotransmitter receptors associated with side effects and/or abuse liability. Data are the average of two individual assays for each receptor and are expressed as % inhibition of the control specific binding of the reference compound. Results showing an inhibition higher than 50% are considered to represent significant effects of the test compound.

The target in another assay is Serotoninergic 5-HT3 (Homo sapiens, UniProt P46098). The assay is described as follows: CNS receptor binding assay, 5-HT3. Conditions: MAP4343 10 µM; [^3H] BRL 43694; Human recombinant (CHO cells); read-out: % Inhibition of control specific binding. The protocol: as §3, §4
Another assay addresses T2, Androgen Receptor (AR) (Rattus norvegicus, UniProt P15207).
T2 construct: host or cells: E. coli
The experiment in a line: Radioligand binding assay, steroid hormone receptor AR. Particulars: MAP4343 10 µM; 1.5 nM [^3H] Mibolerone; Rat recombinant E. coli. The method, then: as §1, §2

In assay [2] the target is T3, Glucorticoid Receptor (GR) (Homo sapiens, UniProt P04150).
T3 construct: Human HeLa S3 cells; endogenous in cells; host or cells: HeLa S3
The experiment in a line: Radioligand binding assay, steroid hormone receptor GR. Conditions: MAP4343 10 µM; 3 nM [^3H] Dexamethasone; Human HeLa S3 cells. The protocol: as §1, §2

For assay [3], the target named is T4, Muscarinic (Cholinergic) M3 (Homo sapiens, UniProt P20309).
T4 construct: expressed in transfected cells; host or cells: CHO cells
The experiment in a line: CNS receptor binding assay, M3. Particulars: MAP4343 10 µM; [^3H] 4-DAMP; Human recombinant (CHO cells); read-out: % Inhibition of control specific binding. The method, then:
as §3, §4

The target in assay [4] is T5, Muscarinic (Cholinergic) M2 (Homo sapiens, UniProt P08172).
T5 construct: expressed in transfected cells; host or cells: CHO cells
The experiment in a line: CNS receptor binding assay, M2. Conditions: MAP4343 10 µM; [^3H] AF-DX 384; Human recombinant (CHO cells); read-out: % Inhibition of control specific binding. The method, then: as §3, §4

For a further assay, the system named is Noradrenergic α1. The assay is described as follows: CNS receptor binding assay, α1. Particulars: MAP4343 10 µM; [^3H] prazosin; rat cerebral cortex. The protocol:
as §3, §4

In the next assay the test system is Wistar (WI) rats. The experiment in a line: Forced swimming test (FST), WI rats. The class given is in vivo, rat. Conditions: dose-ranging, Fig. 6A. The protocol: 3B-methoxy-PREG (also referred to as "MAP4343" in Example 4) was dissolved in sesame oil by sonication using a Sonifer-450 (Branson Ultrasonics Corporation, Danbury, USA) during 1 cycle of 5 pulses in sesame oil. Fluoxetine (Biotrend, Köln, Germany) and Ketamine (Sigma-Aldrich, St-Quentin Fallvier, France) were dissolved in sterile saline solution (NaCl 0.9%). The drug formulations were prepared freshly each day of treatment. MAP4343 was administered subcutaneously (ranging of 1-15 mg/Kg/day) while fluoxetine and ketamine were injected intraperitonealy (10 mg/Kg/day and 30 mg/Kg/day, respectively).
Rats were submitted to the forced swimming test (FST), according the procedure initially described by (Detke et al., 1995) and slightly modified by (Bianchi et al., 2002). Briefly, rats were individually placed into a Plexiglas cylinder (40 cm height, 20 cm diameter) containing 25 cm of water at 25 ± 1°C, under 50 lux illumination. After a pre-test session of 15 min, rats were removed, dried and returned to its housed cage. […] The pre-test and test sessions were recorded using a video camera placed above the cylinder for subsequent behavioral analysis. The immobility time (in sec) was blindly measured by two independent experimenters from recorded videos. […]
The effects of a dose-ranging administration of MAP4343 were tested in WI and WKY rats on their immobility time measured in FST.

Another assay concerns the target Dopaminergic D3 (Homo sapiens, UniProt P35462). The experiment in a line: CNS receptor binding assay, D3. Particulars: MAP4343 10 µM; [^3H] spiperone; Human recombinant (CHO cells); read-out: % Inhibition of control specific binding. The protocol:
as §3, §4

In a further assay the test system is Noradrenergic α2. The assay is described as follows: CNS receptor binding assay, α2. Particulars: MAP4343 10 µM; [^3H] RX 821002; rat cerebral cortex. The method, then: as §3, §4
The next assay deals with Serotoninergic 5-HT2C (Homo sapiens, UniProt P28335). The experiment in a line: CNS receptor binding assay, 5-HT2C. Conditions: MAP4343 10 µM; [^3H] mesulergine; Human recombinant (CHO cells); read-out: % Inhibition of control specific binding. The method, then:
as §3, §4

The target in assay [5] is Noradrenergic Transporter (Homo sapiens, UniProt P23975). The assay is described as follows: CNS receptor binding assay, noradrenergic transporter. Conditions: MAP4343 10 µM; [^3H] nisoxetine; Human recombinant (CHO cells); read-out: % Inhibition of control specific binding. The protocol: as §3, §4
A further assay deals with Dopaminergic D2S (Homo sapiens, UniProt P14416). The assay is described as follows: CNS receptor binding assay, D2S. Conditions: MAP4343 10 µM; [^3H] spiperone; Human recombinant (HEK-293 cells); read-out: % Inhibition of control specific binding. The protocol:
as §3, §4

For assay [6], the target named is purified tubulin and MAP2 (Homo sapiens, UniProt P11137). The experiment in a line: Microtubule polymerization activity (optical density at 345 nm). Conditions: increase in optical density at 345 nm, 37 °C, in the presence of GTP. Type of assay: biochemical. The method, then:
Activity is measured by the increase in optical density at 345 nm of a mixture of purified tubulin and MAP2, incubated at 37 °C in the presence of GTP.

T2 sequence (P15207 615-902 limits assumed): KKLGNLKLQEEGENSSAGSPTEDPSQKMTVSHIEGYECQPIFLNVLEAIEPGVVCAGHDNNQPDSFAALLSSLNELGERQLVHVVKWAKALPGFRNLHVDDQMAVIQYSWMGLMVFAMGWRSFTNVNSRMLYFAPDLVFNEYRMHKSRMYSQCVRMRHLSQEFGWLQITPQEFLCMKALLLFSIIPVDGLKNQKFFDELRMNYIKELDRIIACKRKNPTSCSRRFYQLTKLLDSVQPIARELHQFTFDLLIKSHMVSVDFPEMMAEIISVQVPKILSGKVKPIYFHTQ
T3 sequence (P04150 whole entry): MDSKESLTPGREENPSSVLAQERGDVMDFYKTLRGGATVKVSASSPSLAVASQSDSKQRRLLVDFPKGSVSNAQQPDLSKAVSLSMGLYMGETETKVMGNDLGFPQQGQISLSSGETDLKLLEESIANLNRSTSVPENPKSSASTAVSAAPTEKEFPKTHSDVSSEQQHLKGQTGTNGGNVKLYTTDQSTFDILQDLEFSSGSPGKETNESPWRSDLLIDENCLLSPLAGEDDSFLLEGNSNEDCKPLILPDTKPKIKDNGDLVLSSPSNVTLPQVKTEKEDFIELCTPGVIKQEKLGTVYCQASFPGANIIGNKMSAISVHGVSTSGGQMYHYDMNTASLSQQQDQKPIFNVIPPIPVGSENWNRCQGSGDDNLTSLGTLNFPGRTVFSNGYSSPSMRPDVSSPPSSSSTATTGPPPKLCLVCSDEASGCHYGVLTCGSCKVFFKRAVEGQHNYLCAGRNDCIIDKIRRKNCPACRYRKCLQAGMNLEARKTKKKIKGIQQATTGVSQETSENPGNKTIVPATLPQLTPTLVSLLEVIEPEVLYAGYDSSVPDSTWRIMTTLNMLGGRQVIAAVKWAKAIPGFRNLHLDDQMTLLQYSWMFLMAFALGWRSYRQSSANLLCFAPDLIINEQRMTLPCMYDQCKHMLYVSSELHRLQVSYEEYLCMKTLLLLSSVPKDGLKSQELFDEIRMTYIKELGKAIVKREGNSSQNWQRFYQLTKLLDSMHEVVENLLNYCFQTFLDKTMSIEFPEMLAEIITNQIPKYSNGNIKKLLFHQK
T1 sequence (P22199 whole entry): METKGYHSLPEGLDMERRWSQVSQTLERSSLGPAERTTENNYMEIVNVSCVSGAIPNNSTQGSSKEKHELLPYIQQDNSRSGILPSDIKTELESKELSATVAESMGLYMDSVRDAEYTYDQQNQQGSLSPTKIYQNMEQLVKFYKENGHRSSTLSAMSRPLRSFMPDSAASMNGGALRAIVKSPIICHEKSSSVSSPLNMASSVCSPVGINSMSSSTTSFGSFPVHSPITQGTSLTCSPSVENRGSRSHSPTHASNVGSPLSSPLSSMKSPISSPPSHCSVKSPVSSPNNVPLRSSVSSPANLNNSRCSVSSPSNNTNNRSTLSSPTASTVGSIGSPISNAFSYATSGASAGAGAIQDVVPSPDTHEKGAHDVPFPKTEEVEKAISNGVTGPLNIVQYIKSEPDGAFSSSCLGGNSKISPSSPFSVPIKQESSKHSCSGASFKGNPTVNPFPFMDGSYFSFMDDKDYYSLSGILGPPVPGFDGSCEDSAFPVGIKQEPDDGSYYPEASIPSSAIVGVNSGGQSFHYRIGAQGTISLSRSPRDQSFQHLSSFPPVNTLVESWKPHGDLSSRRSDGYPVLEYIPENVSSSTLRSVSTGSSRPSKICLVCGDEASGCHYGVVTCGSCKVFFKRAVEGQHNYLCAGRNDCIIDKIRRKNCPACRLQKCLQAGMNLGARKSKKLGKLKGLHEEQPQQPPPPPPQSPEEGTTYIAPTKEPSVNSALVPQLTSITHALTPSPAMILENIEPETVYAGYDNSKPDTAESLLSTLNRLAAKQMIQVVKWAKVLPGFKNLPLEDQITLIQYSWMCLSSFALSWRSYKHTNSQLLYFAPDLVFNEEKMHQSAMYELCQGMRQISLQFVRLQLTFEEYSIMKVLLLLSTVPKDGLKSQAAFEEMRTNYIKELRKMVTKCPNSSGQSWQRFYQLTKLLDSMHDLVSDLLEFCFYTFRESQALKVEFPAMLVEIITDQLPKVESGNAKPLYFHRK
T4 sequence (P20309 whole entry): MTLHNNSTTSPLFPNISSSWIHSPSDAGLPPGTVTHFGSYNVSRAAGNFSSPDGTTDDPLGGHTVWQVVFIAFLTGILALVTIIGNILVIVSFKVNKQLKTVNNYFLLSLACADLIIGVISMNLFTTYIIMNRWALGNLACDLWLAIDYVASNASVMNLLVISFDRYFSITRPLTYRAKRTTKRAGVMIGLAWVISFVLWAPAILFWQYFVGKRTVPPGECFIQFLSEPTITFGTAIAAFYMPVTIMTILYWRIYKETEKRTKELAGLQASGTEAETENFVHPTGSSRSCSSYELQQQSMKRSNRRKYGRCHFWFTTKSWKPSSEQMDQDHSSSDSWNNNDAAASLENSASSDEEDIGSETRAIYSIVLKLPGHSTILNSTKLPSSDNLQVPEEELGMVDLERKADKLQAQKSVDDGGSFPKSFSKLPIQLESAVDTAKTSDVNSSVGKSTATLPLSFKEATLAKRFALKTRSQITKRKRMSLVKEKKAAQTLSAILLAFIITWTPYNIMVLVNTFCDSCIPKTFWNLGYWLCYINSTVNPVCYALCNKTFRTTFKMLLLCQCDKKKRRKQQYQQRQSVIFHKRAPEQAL
purified tubulin and MAP2, sequence (P11137 whole entry): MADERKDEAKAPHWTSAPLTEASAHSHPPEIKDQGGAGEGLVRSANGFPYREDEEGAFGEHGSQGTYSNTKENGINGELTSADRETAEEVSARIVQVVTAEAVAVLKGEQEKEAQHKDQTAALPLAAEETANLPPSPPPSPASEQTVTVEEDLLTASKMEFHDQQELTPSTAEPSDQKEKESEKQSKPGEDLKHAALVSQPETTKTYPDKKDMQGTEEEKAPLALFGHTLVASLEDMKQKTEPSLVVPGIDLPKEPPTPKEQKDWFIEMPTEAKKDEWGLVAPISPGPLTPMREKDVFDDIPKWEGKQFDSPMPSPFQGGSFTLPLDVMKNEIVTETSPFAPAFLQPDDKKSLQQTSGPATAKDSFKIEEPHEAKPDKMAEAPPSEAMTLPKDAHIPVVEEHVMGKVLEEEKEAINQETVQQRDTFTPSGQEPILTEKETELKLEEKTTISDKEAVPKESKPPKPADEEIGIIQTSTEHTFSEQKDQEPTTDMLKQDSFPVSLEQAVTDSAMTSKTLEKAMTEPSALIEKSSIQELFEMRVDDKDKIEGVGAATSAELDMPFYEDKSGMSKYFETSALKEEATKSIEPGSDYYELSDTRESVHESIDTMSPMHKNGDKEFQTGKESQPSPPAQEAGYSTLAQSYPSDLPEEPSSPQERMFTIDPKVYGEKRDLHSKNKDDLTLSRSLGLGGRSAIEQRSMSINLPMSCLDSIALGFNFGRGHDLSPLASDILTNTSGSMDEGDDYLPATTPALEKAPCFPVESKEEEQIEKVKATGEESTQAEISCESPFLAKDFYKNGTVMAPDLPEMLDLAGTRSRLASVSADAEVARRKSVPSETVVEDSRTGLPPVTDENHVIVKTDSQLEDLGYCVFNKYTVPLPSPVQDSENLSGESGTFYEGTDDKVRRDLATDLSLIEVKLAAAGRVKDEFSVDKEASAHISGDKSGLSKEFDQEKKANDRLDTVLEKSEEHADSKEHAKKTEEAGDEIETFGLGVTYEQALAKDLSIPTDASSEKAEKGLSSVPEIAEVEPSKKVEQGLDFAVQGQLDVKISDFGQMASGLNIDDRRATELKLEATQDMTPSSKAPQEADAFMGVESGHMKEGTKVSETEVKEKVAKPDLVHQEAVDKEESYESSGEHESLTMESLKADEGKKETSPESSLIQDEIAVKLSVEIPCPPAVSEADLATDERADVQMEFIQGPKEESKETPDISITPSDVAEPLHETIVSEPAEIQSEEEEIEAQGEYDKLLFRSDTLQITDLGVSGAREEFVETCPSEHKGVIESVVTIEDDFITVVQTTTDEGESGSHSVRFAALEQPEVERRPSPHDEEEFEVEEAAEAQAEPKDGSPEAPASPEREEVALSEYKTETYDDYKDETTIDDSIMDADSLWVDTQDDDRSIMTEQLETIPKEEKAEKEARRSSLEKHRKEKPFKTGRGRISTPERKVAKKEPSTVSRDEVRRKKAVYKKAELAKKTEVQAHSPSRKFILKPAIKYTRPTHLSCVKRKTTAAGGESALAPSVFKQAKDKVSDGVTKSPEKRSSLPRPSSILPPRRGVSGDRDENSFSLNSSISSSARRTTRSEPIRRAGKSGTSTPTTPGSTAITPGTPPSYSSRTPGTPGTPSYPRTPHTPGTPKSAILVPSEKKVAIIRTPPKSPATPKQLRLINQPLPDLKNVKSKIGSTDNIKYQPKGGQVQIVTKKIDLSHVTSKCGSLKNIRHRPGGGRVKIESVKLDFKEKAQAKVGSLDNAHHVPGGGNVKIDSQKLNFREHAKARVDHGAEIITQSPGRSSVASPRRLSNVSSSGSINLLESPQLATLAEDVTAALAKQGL
Serotoninergic 5-HT3, sequence (P46098 24-478): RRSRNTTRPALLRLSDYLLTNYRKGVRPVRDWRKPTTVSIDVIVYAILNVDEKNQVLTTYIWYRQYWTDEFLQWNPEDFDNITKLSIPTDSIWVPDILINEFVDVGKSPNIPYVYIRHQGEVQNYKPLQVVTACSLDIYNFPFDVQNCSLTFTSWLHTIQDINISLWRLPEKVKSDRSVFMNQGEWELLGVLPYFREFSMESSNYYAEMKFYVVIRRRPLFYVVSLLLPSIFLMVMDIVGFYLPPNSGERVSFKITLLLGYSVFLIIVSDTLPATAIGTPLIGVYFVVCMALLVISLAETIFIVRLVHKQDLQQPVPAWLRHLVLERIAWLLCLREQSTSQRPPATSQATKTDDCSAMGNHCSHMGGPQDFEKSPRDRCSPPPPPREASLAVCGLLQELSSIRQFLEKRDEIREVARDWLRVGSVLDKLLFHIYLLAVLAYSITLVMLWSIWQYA

In general, % inhibition refers to how much of the control response was suppressed. Usually inhibition stands for how much of the control response was suppressed. As for `CO[C@H]1CC[C@@]2(C)C(=CC[C@H]3[C@@H]4CC[C@H](C(C)=O)[C@@]4(C)CC[C@@H]32)C1` (stereo in doubt) [MAP4343, 3β-methoxy-pregna-5-ene-20-one], the “% inhibition” value turned out to be 25% in assay [1], 18% at Androgen Receptor (AR) and 21% in [2]. Also, the inhibition at 10 µM is less than 25% in assay [1]; 9% at Histaminergic H1; 10% at Serotoninergic 5-HT3; less than 25% on Androgen Receptor (AR); less than 25% in assay [2]; 3% in assay [3]. The inhibition at 10 µM in assay [4] is 20%; at Dopaminergic D3, 8%; at Serotoninergic 5-HT2C, 7%; in assay [5], 3%; on Dopaminergic D2S, 6%. The figures for the “% Inhibition of control specific binding” value in the assay on Noradrenergic α1 and with Noradrenergic α2 were 4% and 7%, respectively. Also, the “immobility time measured in FST, change as compared to WI receiving vehicle alone” value is -27% in the assay with Wistar (WI) rats (MAP4343 10 mg/kg) and -31% in the assay on Wistar (WI) rats (MAP4343 15 mg/kg). Also, the Activity in [6] was 100% of PREG.
